Measured values taken from paper PMC11089506 (Journal of Medicinal Chemistry, 2024).
Where a name gives a salt, the structure may show the parent alone. Read-outs that look alike come from different tables or passages of the source.

Columns and labels:
[1] = target: T1, α2C (adrenergic receptor) (Homo sapiens, UniProt P18825); assay: radioligand competition binding, [3H]RX 821002
T1 construct: Eurofins

[2] = target: T2, M5 (muscarinic receptor) (Homo sapiens, UniProt P08912); assay: radioligand competition binding, [3H]4-DAMP
T2 construct: Eurofins
T2 sequence (P08912 1-532): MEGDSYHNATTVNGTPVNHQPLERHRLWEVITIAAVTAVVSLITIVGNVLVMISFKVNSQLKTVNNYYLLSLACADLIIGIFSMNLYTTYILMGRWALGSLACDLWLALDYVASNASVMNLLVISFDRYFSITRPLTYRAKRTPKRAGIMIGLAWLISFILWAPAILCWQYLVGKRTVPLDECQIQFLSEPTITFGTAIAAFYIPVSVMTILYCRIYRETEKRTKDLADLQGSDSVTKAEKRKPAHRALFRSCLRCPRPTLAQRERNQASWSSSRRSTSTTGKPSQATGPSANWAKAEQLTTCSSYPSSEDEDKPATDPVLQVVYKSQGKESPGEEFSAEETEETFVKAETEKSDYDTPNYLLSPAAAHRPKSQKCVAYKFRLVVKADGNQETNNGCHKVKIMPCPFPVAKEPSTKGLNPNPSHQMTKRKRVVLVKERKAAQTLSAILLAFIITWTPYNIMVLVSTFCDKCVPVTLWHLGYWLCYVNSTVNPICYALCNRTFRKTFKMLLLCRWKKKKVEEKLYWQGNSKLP

[3] = target: T3, β1 (adrenergic receptor) (Homo sapiens, UniProt P08588); assay: radioligand competition binding, [3H](-)CGP 12177
T3 construct: Eurofins

[4] = system: MDR1 (P-gp); assay: MDR1-MDCK II permeability assay; type: in vitro ADME; conditions: dog, MDCK-MDR1, pH 7.4
[5] = system: MDR1; assay: MDR1-MDCK II permeability assay; type: in vitro ADME; conditions: dog, MDCK-MDR1, pH 7.4, Table S6
[6] = target: T4, H1 (histaminergic receptor) (Homo sapiens, UniProt P35367); assay: radioligand competition binding, [3H]pyrilamine
T4 construct: Eurofins

[7] = target: T5, 5-HT1B (Homo sapiens, UniProt P28222); assay: radioligand competition binding, [3H]GR125743
T5 construct: Eurofins

[8] = system: Purinergic receptor P2X; assay: radioligand competition binding, [3H]α,β-Methylene-ATP; design: species or system rat
[9] = target: T6, β2 (adrenergic receptor) (Homo sapiens, UniProt P07550); assay: radioligand competition binding, [3H](-)CGP 12177
T6 construct: Eurofins

[10] = system: Thyroid hormone receptor; assay: radioligand competition binding, [125I]Triiodothyronine; design: species or system rat
[11] = target: Ca2+ Channel L-Type, (Benzothiazepine) (Rattus norvegicus, UniProt P22002); assay: biochemical; conditions: read-out: % inhibition of the specific radioligand binding
[12] = target: T7, D4.4 (dopaminergic receptor) (Homo sapiens, UniProt P21917); assay: radioligand competition binding, [3H]methyl-spiperone; conditions: read-out: % inhibition of the specific radioligand binding
T7 construct: Eurofins

[13] = target: T8, K+ Channel (hERG) (Homo sapiens, UniProt Q12809); assay: radioligand competition binding, [3H]Astemizole; conditions: estimated from the % inhibition data
T8 construct: Eurofins

[14] = target: T9, hERG K+ channel (Homo sapiens, UniProt Q12809); assay: radioligand competition binding, [3H]Astemizole; conditions: human, probe [3H]Astemizole; read-out: % inhibition of the specific radioligand binding
T9 construct: Eurofins

[15] = target: T10, D3 (dopaminergic receptor) (Homo sapiens, UniProt P35462); assay: radioligand competition binding, [3H]methyl-spiperone; conditions: read-out: % inhibition of the specific radioligand binding
T10 construct: Eurofins

[16] = target: T11, Epidermal Growth Factor receptor (Homo sapiens, UniProt P00533); assay: radioligand competition binding, [125I]EGF
T11 construct: Eurofins

[17] = system: Purinergic receptor P2Y; assay: radioligand competition binding, [35S]dATPαS; design: species or system rat
[18] = target: T12, α1D (adrenergic receptor) (Homo sapiens, UniProt P25100); assay: radioligand competition binding, [3H]Prazosin
T12 construct: Eurofins

[19] = target: T13, Melatonin receptor MT1 (Homo sapiens, UniProt P48039); assay: radioligand competition binding, [125I]2-Iodomelatonin
T13 construct: Eurofins

[20] = system: Kainate receptor; assay: radioligand competition binding, [3H]Kainic acid; design: species or system rat
[21] = target: T14, SERT (Homo sapiens, UniProt P31645); assay: radioligand competition binding, [3H]imipramine
T14 construct: Eurofins

[22] = target: T15, 5-HT1D (Rattus norvegicus, UniProt P28565); assay: radioligand competition binding, [3H]serotonin
T15 construct: Eurofins

[23] = target: T16, Bradykinin receptor B2 (Homo sapiens, UniProt P30411); assay: radioligand competition binding, [3H]Bradykinin
T16 construct: Eurofins

[24] = target: T17, α1A (adrenergic receptor) (Homo sapiens, UniProt P35348); assay: radioligand competition binding, [3H]Prazosin
T17 construct: Eurofins

[25] = target: T18, Opioid receptor κ (Homo sapiens, UniProt P41145); assay: radioligand competition binding, [3H]Diprenorphine (first line)
T18 construct: Eurofins

[26] = target: T19, Adenosine receptor A3 (Homo sapiens, UniProt P0DMS8); assay: radioligand competition binding, [125I]AB-MECA
T19 construct: Eurofins

[27] = target: T20, M2 (muscarinic receptor) (Homo sapiens, UniProt P08172); assay: radioligand competition binding, [3H]AF-DX 384
T20 construct: Eurofins

[28] = target: T21, K+ Channel (KATP) (Cricetus cricetus, UniProt Q09427); assay: radioligand competition binding, [3H]Glyburide; design: species or system hamster
T21 construct: Eurofins

[29] = estimated from the % inhibition data
[30] = read-out: % inhibition of the specific radioligand binding

In the case of `COc1cc(C(F)(F)F)c(OC)cc1[C@@H]1CCCNC1` [(S)-11, 3-(2,5-Dimethoxy-4-(trifluoromethyl)phenyl)piperidine Hydrochloride], the IC50 [1, 29] is reported as > 10 µM, the inhibition at 10 µM [1, 30] is reported as 36% and the IC50 [2, 29] is reported as ~1 µM. It also gave an inhibition at 0.1 µM [2, 30] of 9%, an inhibition at 1 µM [2, 30] of 57% and an inhibition at 10 µM [2, 30] of 92%. For the same compound, the IC50 [3, 29] was > 10 µM, the inhibition at 10 µM [3, 30] was 38% and the Papp A→B at […] [4] was 18.4 ×10⁻⁶ cm/s. It also gave a Papp B→A at […] [4] of 17.3 ×10⁻⁶ cm/s, a Papp A→B at […], 2 µM ([4]; Figure 6) of 18.6 ×10⁻⁶ cm/s and a Papp B→A at […], 2 µM ([4]; Figure 6) of 17.3 ×10⁻⁶ cm/s. For the same compound, the recovery at […] ([5]; read-out: Mean Recovery A to B) was 70%, the recovery at […] ([5]; read-out: Mean Recovery B to A) was 92% and the IC50 [6, 29] was 1 to 10 µM. For the same compound, the inhibition at 1 µM [6, 30] was 19%, the inhibition at 10 µM [6, 30] was 64% and the IC50 [7, 29] was 1 to 10 µM. For the same compound, the inhibition at 1 µM [7, 30] was 21%, the inhibition at 10 µM [7, 30] was 68% and the “% inhibition of the specific radioligand binding” value (shortened to “% inhibition”) ([8]; (S)-11 10 μM, n=1) was -30%. For the same compound, the IC50 [8, 29] was > 10 µM, the IC50 [9, 29] was ~10 µM and the inhibition at 1 µM [9, 30] was 2%. For the same compound, the inhibition at 10 µM [9, 30] was 55%, the “% inhibition” value ([10]; (S)-11 10 μM, n=1) was -1% and the IC50 [10, 29] was > 10 µM. For the same compound, the inhibition at 10 µM [11] was 66%, the inhibition at 10 µM [12] was 9% and the IC50 [13] was > 10 µM. The inhibition at 10 µM [14] was 32%, the inhibition at 10 µM [15] was 40% and the IC50 [16, 29] was > 10 µM. The inhibition at 10 µM [16, 30] was -18%, the “% inhibition” value ([17]; (S)-11 10 μM, n=1) was 2% and the IC50 [17, 29] was > 10 µM. The IC50 [18, 29] was > 10 µM, the inhibition at 10 µM [18, 30] was 27% and the IC50 [19, 29] was > 10 µM. For the same compound, the inhibition at 10 µM [19, 30] was 7%, the “% inhibition” value ([20]; (S)-11 10 μM, n=1) was 9% and the IC50 [20, 29] was > 10 µM. The IC50 [21, 29] was > 10 µM, the inhibition at 10 µM [21, 30] was 22% and the IC50 [22, 29] was 0.1 to 1 µM. It also gave an inhibition at 0.1 µM [22, 30] of 18%, an inhibition at 1 µM [22, 30] of 64% and an inhibition at 10 µM [22, 30] of 93%. The IC50 [23, 29] was > 10 µM, the inhibition at 10 µM [23, 30] was 18% and the IC50 [24, 29] was > 10 µM. For the same compound, the inhibition at 10 µM [24, 30] was 32%, the IC50 [25, 29] was > 10 µM and the inhibition at 10 µM [25, 30] was 18%. For the same compound, the IC50 [26, 29] was > 10 µM, the inhibition at 10 µM [26, 30] was -10% and the IC50 [27, 29] was ~10 µM. For the same compound, the inhibition at 10 µM [27, 30] was 40%, the IC50 [28, 29] was > 10 µM and the inhibition at 10 µM [28, 30] was -2%.
